{
  "source": "patent US20140088187A1",
  "about": "“ANDROGEN RECEPTOR INHIBITORS AND METHODS OF USE THEREOF” (BETH ISRAEL DEACONESS MEDICAL CENTER, priority 2010, published 2014)",
  "type_in_all_cases": "cell-based",
  "key": {"[1]": {"molecular_target": "T1, wild-type AR in PC3-AR cells (Homo sapiens, UniProt P10275)", "T1 construct": "expressed in transfected cells", "T1 sequence (P10275 1-920)": "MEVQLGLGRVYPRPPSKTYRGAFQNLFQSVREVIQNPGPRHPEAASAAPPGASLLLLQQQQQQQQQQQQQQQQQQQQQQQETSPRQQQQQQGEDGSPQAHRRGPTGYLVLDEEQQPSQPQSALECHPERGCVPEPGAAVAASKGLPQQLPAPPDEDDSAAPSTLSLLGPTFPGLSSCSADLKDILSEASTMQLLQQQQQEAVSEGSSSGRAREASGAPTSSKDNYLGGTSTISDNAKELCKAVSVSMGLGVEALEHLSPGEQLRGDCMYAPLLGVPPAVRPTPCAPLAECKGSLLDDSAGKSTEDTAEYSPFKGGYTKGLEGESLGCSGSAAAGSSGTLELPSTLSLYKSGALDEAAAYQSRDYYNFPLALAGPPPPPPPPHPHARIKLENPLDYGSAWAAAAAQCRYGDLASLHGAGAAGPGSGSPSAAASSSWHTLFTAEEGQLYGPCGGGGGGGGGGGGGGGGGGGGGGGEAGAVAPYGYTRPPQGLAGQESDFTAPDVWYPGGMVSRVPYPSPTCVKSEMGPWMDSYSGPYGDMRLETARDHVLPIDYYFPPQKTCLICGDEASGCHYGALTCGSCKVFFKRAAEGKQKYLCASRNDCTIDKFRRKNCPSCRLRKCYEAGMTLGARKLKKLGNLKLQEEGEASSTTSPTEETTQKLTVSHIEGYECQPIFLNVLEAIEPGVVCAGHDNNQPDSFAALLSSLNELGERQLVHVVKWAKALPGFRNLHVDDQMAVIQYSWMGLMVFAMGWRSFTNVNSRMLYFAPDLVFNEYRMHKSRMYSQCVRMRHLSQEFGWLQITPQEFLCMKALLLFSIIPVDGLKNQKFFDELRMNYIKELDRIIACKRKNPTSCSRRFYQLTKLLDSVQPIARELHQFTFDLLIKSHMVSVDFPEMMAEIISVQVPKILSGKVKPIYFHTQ", "experiment": "AR protein levels and degradation (cycloheximide) in PC3-AR cells", "protocol": "As LNCaP and C4-2 cells express the T877A mutant AR, we next examined PC3-AR cells expressing wildtype AR. As observed in C4-2 cells, A89 caused a decrease in AR protein levels (FIG. 10d). To further validate that this was due to increased AR protein degradation, we pretreated these cells with A89 for 2 hours and then blocked new protein synthesis with cycloheximide (CHX). […] We finally examined VCaP cells."}, "AR WT": {"molecular_target": "T2, AR WT (Homo sapiens, UniProt P10275)", "T2 construct": "The AR WT construct expresses full-length human AR under cmv promoter control; expressed in transfected cells; host or cells: COS7", "T2 sequence (P10275 1-920)": "T1 sequence (P10275 1-920)", "experiment": "Mifepristone-stimulated VP16-NCoRc recruitment reporter assay in COS7 cells, AR WT", "source_text": "(§1) The ERα antagonist fulvestrant (Faslodex) represents a novel class of estrogen receptor downregulators that appear to mediate ERα degradation by specifically repositioning helix 12. To assess the role of helix 12 in chemotype A-mediated AR degradation, we first determined if helix 12 is required for A89 binding. As this helix is required for AR agonist activity, we could not directly measure competitive antagonist activity on a truncated AR lacking helix 12."}, "AR ΔH12": {"molecular_target": "T3, AR ΔH12 (Homo sapiens, UniProt P10275)", "T3 construct": "expressed in transfected cells; host or cells: COS7", "T3 sequence (P10275 1-886 limits assumed)": "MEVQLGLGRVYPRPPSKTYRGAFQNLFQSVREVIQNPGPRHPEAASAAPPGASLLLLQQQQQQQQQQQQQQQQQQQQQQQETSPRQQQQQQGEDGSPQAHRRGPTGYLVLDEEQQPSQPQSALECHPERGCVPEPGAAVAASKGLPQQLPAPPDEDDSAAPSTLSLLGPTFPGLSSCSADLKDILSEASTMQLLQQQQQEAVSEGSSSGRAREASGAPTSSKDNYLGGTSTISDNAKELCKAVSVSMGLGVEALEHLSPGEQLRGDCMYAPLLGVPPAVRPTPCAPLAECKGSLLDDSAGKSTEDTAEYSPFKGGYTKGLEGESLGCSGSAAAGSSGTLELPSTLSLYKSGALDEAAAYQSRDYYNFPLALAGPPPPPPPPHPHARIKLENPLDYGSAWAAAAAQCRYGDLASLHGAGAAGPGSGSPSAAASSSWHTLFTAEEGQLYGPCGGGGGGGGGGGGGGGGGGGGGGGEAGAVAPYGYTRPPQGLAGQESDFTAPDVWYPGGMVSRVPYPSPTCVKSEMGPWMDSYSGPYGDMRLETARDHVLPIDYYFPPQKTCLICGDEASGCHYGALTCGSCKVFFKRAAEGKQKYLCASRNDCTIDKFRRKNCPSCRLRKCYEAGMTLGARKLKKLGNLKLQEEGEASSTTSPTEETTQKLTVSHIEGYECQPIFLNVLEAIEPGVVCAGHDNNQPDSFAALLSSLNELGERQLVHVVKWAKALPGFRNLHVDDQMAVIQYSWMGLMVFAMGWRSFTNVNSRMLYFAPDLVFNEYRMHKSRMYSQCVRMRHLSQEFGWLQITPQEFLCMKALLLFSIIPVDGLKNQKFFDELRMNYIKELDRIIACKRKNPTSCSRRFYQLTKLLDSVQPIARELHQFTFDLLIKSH", "experiment": "AR expression levels in transiently transfected COS7 cells, AR ΔH12", "details": "24 hours"}, "[2]": {"molecular_target": "T4, AR ΔH12 (M886X variant AR) (Homo sapiens, UniProt P10275)", "T4 construct": "expressed in transfected cells; host or cells: COS7", "T4 sequence (P10275 1-886 limits assumed)": "T3 sequence (P10275 1-886 limits assumed)", "experiment": "Mifepristone-stimulated VP16-NCoRc recruitment reporter assay in COS7 cells, AR ΔH12", "source_text": "as §1"}, "[3]": {"details": "Mif 100 nM, A89 50 μM, 24 hours"}},
  "data": [
    {"smiles": "CCOc1cc(F)c(S(=O)(=O)NCc2ccc3c(c2)OCO3)cc1F", "note": "[Compound A89, N-(1,3-benzodioxol-5-ylmethyl)-4-ethoxy-2,5-difluorobenzenesulfonamide]", "values": [
      {"measurement": "time within which AR protein decreased", "setting": "[1]; A89 10 μM, PC3-AR cells", "value": "≤ 4", "unit": "h"},
      {"measurement": "time within which total AR protein dramatically decreased after cycloheximide (CHX)", "setting": "[1]; A89 treated PC3-AR cells plus CHX", "value": "≤ 1", "unit": "h"},
      {"measurement": "AR protein levels", "setting": "[1]; PC3-AR cells expressing wildtype AR", "value": "decrease"},
      {"measurement": "AR protein levels after cycloheximide", "setting": "[1]; PC3-AR cells pretreated with A89 for 2 hours, then 1 hour CHX, versus CHX alone", "value": "declined markedly"},
      {"measurement": "mifepristone-mediated VP16-NCoRc recruitment", "setting": "AR WT; A89 50 μM with Mif 100 nM", "value": "suppressed"},
      {"measurement": "VP16-NCoRc recruitment (interaction with AR)", "setting": "AR WT; [3]", "value": "did not stimulate"},
      {"measurement": "AR ΔH12 protein levels", "setting": "AR ΔH12", "value": "not clearly decreased"},
      {"measurement": "mifepristone-mediated VP16-NCoRc recruitment", "setting": "[2]; A89 50 μM with Mif 100 nM", "value": "suppressed"},
      {"measurement": "VP16-NCoRc recruitment (interaction with AR)", "setting": "[2]; [3]", "value": "did not stimulate"}
    ]}
  ]
}
